Test results reported in patent US12325709B2, “Cannabinoid derivatives” (CANOPY GROWTH CORPORATION, priority 2019, dated 2025).

Assays:
[1] = target: T1, human CB1 receptor (Homo sapiens, UniProt P21554); assay: CB1 radioligand competitive binding assay ([3H]CP 55,940 displacement)
T1 construct: host or cells: CHO-K1 (Chinese hamster ovary) cells, stably transfected; membranes prepared in house

[2] = target: T2, human CB2 receptor (Homo sapiens, UniProt P34972); assay: CB2 radioligand competitive binding assay ([3H]CP 55,940 displacement); settings: for Selectivity CB2: fold difference in binding between CB1 and CB2, shown in column of receptor with higher affinity, 1.00 in both = about the same affinity
T2 construct: host or cells: CHO-K1 (Chinese hamster ovary) cells, stably transfected; membranes prepared in house
Protocol: Compounds of the present disclosure were tested for CB1 receptor binding affinity and for CB2 receptor binding affinity. As used herein, “binding affinity” is represented by the IC50 value, which was experimentally determined as described herein. The lower the IC50 value the higher the binding affinity.
The membranes were prepared from CHO-K1 (Chinese hamster ovary) cells stably transfected with the human CB2 receptor (Cat. #ES-111-C; Perkin Elmer, Boston, MA). The cells were grown adherently and maintained in Ham's F12 medium containing 10% fetal bovine serum (FBS), penicillin, streptomycin and geneticin (G418) at 37° C. in a humid atmosphere of 5% CO2 following the manufacturer's instructions.
For membrane preparation the cells were washed with PBS and scraped off the plates in cold homogenization buffer (25 mM HEPES (pH 7.4), 2 mM EDTA) containing protease inhibitor cocktail (Sigma Cat. #P8340). The cell suspension was homogenized with a Pro-PK-01200D Polytron Homogenizer (Pro Scientific) and then centrifuged for 30 min at 120,000×g. The supernatant was discarded and the pellet was re-suspended in the homogenization buffer and stored at −80° C. until the time of use.
In this experiment, 3H radiolabeled CP 55,940, i.e. [3H]CP 55,940 (Perkin Elmer, Boston, MA), was used as a radioligand for the CB2 receptor to determine the binding affinity of compounds for the CB2 receptor (Scheme 3; above).
The competition binding experiments (single dose and dose-response) were performed by incubating 0.6 nM of [3H]CP55,940 (specific activity 101 Ci/mmol, Perkin Elmer) and different concentrations of compounds disclosed herein with membranes prepared as above from CHO-K1 cells expressing human CB2 receptor (1 μg of protein/well), 50 mM Tris-HCl (pH 7.4), 5 mM MgCl2, 1 mM CaCl2, and 2 mg/mL BSA.
For the dose-response experiments the test compounds were sequentially diluted to provide the desired concentration range for the IC50 determination. In each case the compounds were pre-incubated with the membrane for 20 min, before adding the radioligand.
After incubation with the radioligand for 60 min at 37° C., the incubation was terminated by rapid filtration of assay mixture through MultiScreen®HTS^+ 96-well filter plates (Millipore, Cat. #MSFCNXB), pre-soaked for 60 min with 50 mM Tris-HCl (pH 7.4) containing 0.33% polyethylenimine (PEI). The nonspecific binding (NSB) was determined in the presence of 10 μM unlabelled CP55,940. After drying the filter plate at 50° C. for at least 60 min, the filter-bound radioactivity was determined by scintillation spectrometry using the 1450 MicroBeta Plate Counter (Perkin Elmer, Boston, MA).

T2 sequence (P34972 whole entry): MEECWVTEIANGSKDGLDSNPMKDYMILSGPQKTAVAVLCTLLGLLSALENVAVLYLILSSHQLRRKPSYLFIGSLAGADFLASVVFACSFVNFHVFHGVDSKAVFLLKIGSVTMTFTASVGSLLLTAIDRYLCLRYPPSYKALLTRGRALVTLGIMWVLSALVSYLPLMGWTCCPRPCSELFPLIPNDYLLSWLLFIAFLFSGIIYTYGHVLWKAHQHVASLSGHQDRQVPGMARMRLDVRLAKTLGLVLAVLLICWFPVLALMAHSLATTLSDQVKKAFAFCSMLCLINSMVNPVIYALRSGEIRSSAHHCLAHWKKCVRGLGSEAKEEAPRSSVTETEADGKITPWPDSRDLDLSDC
T1 sequence (P21554 whole entry): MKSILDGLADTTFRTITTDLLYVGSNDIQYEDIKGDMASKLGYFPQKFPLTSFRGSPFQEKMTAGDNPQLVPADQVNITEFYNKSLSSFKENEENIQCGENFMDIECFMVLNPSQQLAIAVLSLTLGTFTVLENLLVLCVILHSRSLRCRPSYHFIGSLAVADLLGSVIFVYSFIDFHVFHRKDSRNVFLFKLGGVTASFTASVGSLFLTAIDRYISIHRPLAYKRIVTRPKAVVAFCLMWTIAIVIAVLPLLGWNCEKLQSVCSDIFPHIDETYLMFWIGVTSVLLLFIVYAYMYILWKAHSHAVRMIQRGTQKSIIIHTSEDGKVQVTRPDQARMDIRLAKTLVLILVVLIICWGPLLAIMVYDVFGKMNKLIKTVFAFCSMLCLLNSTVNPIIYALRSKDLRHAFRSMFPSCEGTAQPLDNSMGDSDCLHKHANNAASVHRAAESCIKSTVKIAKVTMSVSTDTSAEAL

SMILES: CCCCCc1cc(O)c(C2C=C(C)CCC2)c(O)c1CN(C)C(=O)OC (stereo not drawn) [Compound 59c, methyl ((2,6-dihydroxy-5′-methyl-4-pentyl-1′,2′,3′,4′-tetrahydro-[1,1′-biphenyl]-3-yl)methyl)(methyl)carbamate]
- IC50 [1]: 0.1 to 0.99 µM
- IC50 [2]: < 0.1 µM
- Selectivity CB2 [2]: 9.26 fold

SMILES: C=C(C)[C@@H]1CCC(C)=C[C@H]1c1c(O)cc(CCC)c(C(=O)NC)c1O [Compound 96d, 2,6-dihydroxy-N,5′-dimethyl-2′-(prop-1-en-2-yl)-4-propyl-1′,2′,3′,4′-tetrahydro-[1,1′-biphenyl]-3-carboxamide]
- IC50 [1]: > 5 µM
- IC50 [2]: > 5 µM
- Selectivity CB2 [2]: 2.59 fold
